The test system of series [1] is MDA-MB-435 cells. In words: Mitochondrial superoxide production (MitoSOX Red). Type of series: cell-based, human. The note with it: for mitochondrial superoxide production, flow cytometry: IC50 or 3×IC50, 24 hours. Here is the method: After drug treatments, a solution of 5 μM MitoSOX Red mitochondrial superoxide indicator (Invitrogen, Carlsbad, Calif.) was added, and cells were incubated for 10 min at 37° C. Cells were then washed three times with Hank's balanced salt solution (HBSS) to remove excess MitoSOX. After washing, cells were either observed under the fluorescence microscope or collected by trypsinization, washed twice with HBSS, and measured for superoxide production using a BD LSRII flow cytometer (BD Biosciences, San Jose, Calif., USA). Data were analyzed with the BD FACSDiva software package (BD Biosciences, San Jose, Calif., USA).

Series [2] concerns HT29 colon cancer cell line. Nature of the series: MTT cytotoxicity assay, HT29. Type of series: cell-based. The note with it: Homo sapiens, HT-29, 72 h exposure. An excerpt:
(§1) The human breast cancer cell line MDA-MB-435 and the colon cancer cell line HT29 were purchased from the American Type Cell Culture (Manassas, Va.). Colon cancer cell lines HCT116 p53^+/+ and HCT116 p53^−/− were kindly provided by Dr. Bert Vogelstein (Johns Hopkins Medical Institutions, Baltimore, Md.). The human ovarian carcinoma cell line (HEY), naturally resistant to cisplatin (CDDP), was kindly provided by Dr. Louis Dubeau (USC Norris Cancer Center). The bladder cancer cell lines were kindly provided by Dr. Richard Cote (USC Keck School of Medicine). Cells were maintained as monolayer cultures in the appropriate media: RPMI-1640 (HT29, HCT116 p53^+/+, HCT116 p53^−/−, and HEY cell lines) or DMEM (MDA-MB-435 and UMUC3 cell lines) supplemented with 10% fetal bovine serum (FBS) (HyClone, Road Logan, Utah) at 37° C. in a humidified atmosphere of 5% CO2. To remove the adherent cells from the flask for subculture and counting, cells were washed with PBS without calcium or magnesium, incubated with a small volume of 1×trypsin-EDTA solution (Sigma-Aldrich, St. Louis, Mo.) for 5 min, resuspended with fresh culture medium, and centrifuged at 1200 rpm for 5 min. All experiments were performed using cells in exponential growth phase. Cells were routinely checked for Mycoplasma contamination using PlasmaTest kit (InvivoGen, San Diego, Calif.).
(§2) Cytotoxicity was assessed by MTT assay as described previously. 43 In brief, cells were seeded in 96-well microtiter plates and allowed to attach overnight. Cells were subsequently treated with continuous exposure to corresponding drugs for 72 h. At the end of treatments, an MTT solution (at a final concentration of 0.5 mg/mL) was added to each well, and cells were incubated for 4 h at 37° C. After removal of the supernatant, DMSO was added, and the absorbance was read at 570 nm. All assays were done in triplicate. The IC50 was then determined for each drug from a plot of log(drug concentration) versus percentage of cells killed.

Series [3] concerns HCT116 p53^+/+ colon cancer cell line. Nature of the series: MTT cytotoxicity assay, HCT116 p53+/+. Type of series: cell-based. The note with it: Homo sapiens, HCT-116, 72 h exposure.
Excerpt: as §1, §2
For orientation: Formazan colour is commonly taken as a measure of viable cells.

Series [4] deals with HCT116 p53^−/− colon cancer cell line. In words: MTT cytotoxicity assay, HCT116 p53-/-. The series is classed as cell-based. The following applies: Homo sapiens, HCT-116, 72 h exposure.
Excerpt: as §1, §2

The test system of series [5] is HEY ovarian cancer cell line. Nature of the series: Cytotoxicity assay, HEY. Type of series: cell-based. The note with it: Homo sapiens.
Excerpt: as §1, §2

Series [6] concerns MDA-MB-435 breast cancer cell line. In words: MTT cytotoxicity assay, MDA-MB-435. The series is classed as cell-based, human. The following applies: for IC50: 72 h exposure.
Excerpt: as §1, §2

The subject of series [7] is UMUC3 bladder cancer cell line. In words: MTT cytotoxicity assay, UMUC3. The following applies: Homo sapiens, 72 h exposure. Type of series: cell-based.
Excerpt: as §1, §2

Series [8] concerns 5637 bladder cancer cell line. Nature of the series: MTT cytotoxicity assay, 5637. Type of series: cell-based, human. The following applies: Homo sapiens, 72 h exposure.
Excerpt: as §1, §2

For series [9], the system named is doxorubicin-resistant NCI/ADR-RES ovarian cancer cell line. In words: Cytotoxicity assay, NCI/ADR-RES. The following applies: Homo sapiens. The series is classed as cell-based. Here is the method: as §2
Series [10] is described as follows: Pharmacokinetics study after i.p. administration. Type of series: in vivo, mice. The note with it: mouse, ip. Here is the method:
To assess the efficacy, tolerability, and pharmacokinetics of these novel compounds following i.p. administration, the pharmacokinetic profile of compounds 4 and 9 was evaluated (Table 3). Mice were treated with compounds 4 and 9 via i.p. injection and serial blood sampling was determined at indicated times after administration. The plasma concentration was determined using a validated liquid chromatography mass spectrometry (LC-MS) method where the lowest level of quantification was 1 ng/mL. One hour following i.p. administration of compounds 4 and 9, their concentrations in the blood were 344 and 6.2 ng/mL, respectively. […] The half-lives of compounds 4 and 9 via i.p. administration were determined to be approximately 3.5 and 9.3 hours, respectively, when a non-compartmental pharmacokinetics analysis was used. The favorable pharmacokinetics profile of compounds 4 and 9 is consistent with the ADMET predictions described previously.
Preliminary pharmacokinetics of compounds 4 and 9 were performed using 18 mice, each time point consisting of two mice. Mice were stratified to various doses given as an i.p. injection of compounds 4 and 9 (24 mg/kg). At the specified time points following drug administration, blood was collected with heparinized syringes. The samples were allowed to settle in 500 μL eppendorf vials and then centrifuged at 1500 rpm for 10 min. The plasma was removed, transferred into new eppendorf tube, and frozen at −80° C. until analysis.

The test system of another series is MDA-MB-435 xenograft. Nature of the series: MDA-MB-435 mouse xenograft model. The series is classed as in vivo. Here is the method: To investigate the in vivo efficacy of these compounds, we selected compound 2 and evaluated its anticancer activity in a nude mouse xenograft model using MDA-MB-435 cells. Animals were treated with daily intraperitoneal (i.p.) injections of DMSO in sesame oil (vehicle control) or compound 2 at 10 mg/kg for 9 days, followed by 20 mg/kg for 5 days and concluding with 40 mg/kg for 12 days. After 26 days of dosing, the drug treatment was discontinued. Mice were monitored daily for an additional 17 days, and tumors were measured twice per week. FIG. 4A summarizes the tumor volume (mean±SEM) of the treatment groups throughout the observation time.
Sixteen virgin female athymic nude (nu/nu) mice (Simonsen Laboratory Inc., Gilroy, Calif.) were used for in vivo efficacy testing. […]
Human breast cancer MDA-MB-435 cells in logarithmic phase growth from in vitro cell culture were inoculated subcutaneously on the rear flank of the mice (1.5×10^6 cells/mouse) under aseptic conditions. Tumor growth was assessed twice weekly by measuring tumor diameters with a Vernier caliper (length×width). Tumor weight was calculated according to the formula: TW (mg)=tumor volume (mm^3)=d^2×D/2, where d and D are the shortest and longest diameters, respectively. […]
Eight mice were assigned to each group and the results were expressed as the mean±SEM. […]

Series [11] has as its system MDA-MB-435 cells. In words: Apoptosis assay, annexin V/propidium iodide flow cytometry. Type of series: cell-based, human. Here is the method:
To quantify drug-induced apoptosis, annexin V/propidium iodide staining was performed and analyzed by flow cytometry. MDA-MB-435 cells were treated with 10 μM compound 1, 2, or 4 for 24 and 48 h. After treatment, both floating and adherent cells were combined and subjected to annexin V/propidium iodide staining using an annexin V-FITC apoptosis detection kit (Oncogene Research Products, San Diego, Calif.) according to manufacturer's recommendations. Untreated control cells (48 h) were maintained in parallel to drugtreated groups. Double staining was used to distinguish between viable, early apoptotic, and necrotic or late apoptotic cells. The resulting fluorescence (FITC-A channel for green fluorescence and PE-A channel for red fluorescence) was measured by flow cytometry using a BD LSRII flow cytometer (BD Biosciences, San Jose, Calif.).

Series [12] deals with OVCAR8 ovarian cancer cell line. Nature of the series: In vitro cytotoxicity, OVCAR8. The series is classed as cell-based. The following applies: Homo sapiens, OVCAR-8; Table 4, ovarian cancer panel. Here is the method:
as §2

Series [13] concerns OVCAR3 ovarian cancer cell line. Nature of the series: In vitro cytotoxicity, OVCAR3. The series is classed as cell-based. The following applies: Homo sapiens, OVCAR-3; Table 4, ovarian cancer panel. Here is the method: as §2

The IC50 is the concentration needed to halve the response being measured. A word on the AUC: it is the area under the concentration-time curve, a measure of exposure. What is called Cmax is the maximum level reached in the sampled fluid or tissue. The term Tmax denotes the time at which the peak concentration occurs. Usually half-life stands for the time in which the quantity being followed falls by half. A lower half-life goes with fast loss.

Each structure is given as a SMILES string.

Consider `CC(=O)O[C@H]1C(=O)[C@@]2(C)[C@H]([C@H](OC(=O)c3ccccc3)[C@]3(O)C[C@H](OC(=O)[C@H](O)[C@@H](NC(=O)c4ccccc4)c4ccccc4)C(C)=C1C3(C)C)[C@]1(OC(C)=O)CO[C@@H]1C[C@@H]2O` [paclitaxel, reference compound], for which the “mitochondrial superoxide, fluorescence microscopy” value in the series on MDA-MB-435 cells [1] (1.5 μM) is reported as “only induced a minor amount of mitochondrial superoxide”.
As to `C#CC(=O)N(c1ccccc1)C(C(=O)NC1CCCCC1)c1cccs1` (stereo not shown) [Compound 18, N[2-(Cyclohexylamino)-2-oxo-1-thien-2-ylethyl]-N-phenyl Propynamide], the IC50 is more than 10000 nM in [2]; 14000 nM in series [3]; more than 20000 nM in series [4]; more than 10000 nM in [5] (MTT, 72 h exposure (Table 2)); more than 10000 nM in series [6] (Homo sapiens, MDA-MB-435, 72 h); more than 20000 nM in series [7]. For the same molecule, the IC50 in [8] amounted to 3500 ± 1400 nM; in [9] (MTT, 72 h exposure (Table 2)) it was 1300 ± 400 nM. Also, the “intensity of MitoSOX staining, fluorescence microscopy” value in the series on MDA-MB-435 cells [1] (24 hours) is on record as “remarkably enhanced the intensity of MitoSOX staining”. In addition, the “mitochondrial superoxide production, flow cytometry” value in the series with MDA-MB-435 cells [1] is “induce significant amounts of superoxide”.
Turning to `C#CC(=O)N(c1ccc(-n2cnnn2)c(C)c1)C(C(=O)NC1CCCC1)c1ccccc1` (stereo not shown) [Compound 9, N-[2-(Cyclopentylamino)-2-oxo-1-phenylethyl]-N-[3-methyl-4-(1Htetraazol-1-yl)phenyl]Propynamide], the IC50 in series [2] is 1500 ± 1100 nM; in [3], 7200 ± 200 nM; in series [4], 5700 ± 900 nM; in series [5] (MTT, 72 h exposure (Table 2)), 1900 ± 300 nM; in series [6] it was 600 ± 300 nM; in series [6] (Homo sapiens, MDA-MB-435, 72 h), 600 to 6300 nM. The concentration for half-maximal inhibition (IC50) in series [7] is 7800 ± 1800 nM; in series [8], 400 ± 100 nM; in series [9] (MTT, 72 h exposure (Table 2)), 1000 ± 700 nM. Also, the “cytotoxic potency in MDA-MB-435 cells” value in series [6] is recorded as “most potent analogue”. For the same molecule, in series [10] (in vivo, 24 mg/kg), the AUC was determined as 124.9 ng·h/mL. Besides, the highest concentration (Cmax) in series [10] (in vivo, 24 mg/kg) is on record as 6.2 ng/mL. Also, the Tmax in series [10] (in vivo, 24 mg/kg) is recorded as 5 h. Besides, in series [10] (in vivo, 24 mg/kg), the half-life was approximately 9.3 h. This molecule had a t1/2 in [10] (in vivo, 24 mg/kg) of 9.3 h. The concentration at 1 h in [10] (plasma, mice, 24 mg/kg i.p., 1 hour, read-out: concentration in the blood one hour following i.p. administration) stood at 6.2 ng/mL.
Turning to `C#CC(=O)N(c1cccc(C(F)(F)F)c1)C(C(=O)NC1CCCC1)c1cccc(OC)c1` (stereo not shown) [Compound 2, N-[2-(Cyclopentylamino)-1-(3-methoxyphenyl)-2-oxoethyl]-N-[3-(trifluoromethyl)phenyl]Propynamide], the IC50 was 7200 ± 200 nM in series [2]; more than 10000 nM in [3]; 8800 ± 400 nM in series [4]; 5200 ± 3400 nM in series [5] (MTT, 72 h exposure (Table 2)); more than 20000 nM in series [7]; 600 ± 400 nM in [8]. This molecule also came in with an IC50 in [9] (MTT, 72 h exposure (Table 2)) of 200 ± 100 nM. Besides, the “tumor burden (tumor volume)” value in the series with MDA-MB-435 xenograft (i.p. daily 10 mg/kg 9 days, 20 mg/kg 5 days, 40 mg/kg 12 days) is “significantly reduced tumor burden”. In addition, in the series on MDA-MB-435 xenograft (mean±SD, after treatment, control 28±2 g), the “average body weight after treatment” value came to 29 ± 2 g. Moreover, the “induction of early apoptosis” value with MDA-MB-435 cells [11] (10 μM, 24 hours) is on record as “failed to induce early apoptosis”. Also, in the series on MDA-MB-435 cells [11] (10 μM, 48 h), the “increase in early apoptotic cells” value came out at 8%. Besides, the “percentage of late apoptotic cells” value in the series on MDA-MB-435 cells [11] (10 μM, 48 hours) came out at 37%. Further, the induction of apoptosis result in the series with MDA-MB-435 cells [11] (24 and 48 hours) is on record as “induce apoptosis”. Besides, the “mitochondrial superoxide production, flow cytometry” value in the series with MDA-MB-435 cells [1] is recorded as “induce significant amounts of superoxide”.
`C#CC(=O)N(c1ccc(-n2cnnn2)c(C)c1)C(C(=O)NC1CCCC1)c1cccc(F)c1` (stereo not shown) [Compound 23]: the half-maximal inhibitory concentration (IC50) in series [5] (Table 4, ovarian cancer panel) is 720 nM; in series [9] (Table 4, ovarian cancer panel), 2000 nM; in series [12], 1500 nM; in series [13], 250 nM.
`C#CC(=O)N(c1ccc(-n2cnnn2)c(C)c1)C(C(=O)NC1CCCC1)c1ccc(F)c(F)c1` (stereo not shown) [Compound 22]: the IC50 in series [5] (Table 4, ovarian cancer panel) is 330 nM; in series [9] (Table 4, ovarian cancer panel), 320 nM; in series [12], 1500 nM; in [13], 2500 nM.

The record behind these values is US20130071328A1, “Propynoic Acid Carbamoyl Methyl-Amides and Pharmaceutical Compositions and Methods Based Thereon” (UNIVERSITY OF SOUTHERN CALIFORNIA, priority 2011, published 2013).
